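Dose response: 5 concentrations. Exposure: 48 h. Format: 96-well plates. Endpoint: linear interpolation; highest concentration if not reached. Here, GI50 denotes the concentration required for 50% inhibition of growth.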 Active and inactive are the calls of the source. Cut-off read from the data, not from the text of the source: active = GI50 up to about 1.1 µM and inactive = higher.
Key:
Test in all cases: growth of human tumour cells (NCI), 48 h
MDA-MB-435 = system: MDA-MB-435
SF-539 = system: SF-539
COLO 205 = system: COLO 205
NCI-H522 = system: NCI-H522
HCT-116 = system: HCT-116
MDA-N = system: MDA-N
UO-31 = system: UO-31
BT-549 = system: BT-549
SF-268 = system: SF-268
NCI-H226 = system: NCI-H226
PC-3 = system: PC-3
M14 = system: M14
OVCAR-5 = system: OVCAR-5
786-0 = system: 786-0
EKVX = system: EKVX
MDA-MB-231 = system: MDA-MB-231
HT-29 = system: HT-29
SK-OV-3 = system: SK-OV-3
TK-10 = system: TK-10
MCF7 = system: MCF7
T47D = system: T47D
SN12C = system: SN12C
IGROV-1 = system: IGROV-1
NCI/ADR-RES = system: NCI/ADR-RES
HCT-15 = system: HCT-15
MOLT-4 = system: MOLT-4
ACHN = system: ACHN
Malme-3M = system: Malme-3M
U-251 = system: U-251
NCI-H23 = system: NCI-H23
HCC 2998 = system: HCC 2998
SNB-19 = system: SNB-19
SK-MEL-2 = system: SK-MEL-2
CAKI-1 = system: CAKI-1
DU-145 = system: DU-145
SK-MEL-28 = system: SK-MEL-28
UACC-62 = system: UACC-62
A549 = system: A549
OVCAR-4 = system: OVCAR-4
CCRF-CEM = system: CCRF-CEM
OVCAR-8 = system: OVCAR-8
Hs-578T = system: Hs-578T
K562 = system: K562
HOP-92 = system: HOP-92
RPMI-8226 = system: RPMI-8226
NCI-H460 = system: NCI-H460
SK-MEL-5 = system: SK-MEL-5
A498 = system: A498
UACC-257 = system: UACC-257
SF-295 = system: SF-295
HL-60 = system: HL-60
SR = system: SR
HOP-62 = system: HOP-62
SW-620 = system: SW-620
SNB-75 = system: SNB-75
RXF 393 = system: RXF 393
OVCAR-3 = system: OVCAR-3
LOX IMVI = system: LOX IMVI
KM12 = system: KM12

## Cc1ccc(S(=O)(=O)N/N=C/C(=C/c2ccc(Cl)cc2)CC(/C=N/NS(=O)(=O)c2ccc(C)cc2)=C\c2ccc(Cl)cc2)cc1
MDA-MB-435
  GI50: 3720 nM (inactive)
SF-539
  GI50: 12100 nM (inactive)
COLO 205
  GI50: 5000 nM (inactive)
NCI-H522
  GI50: 4030 nM (inactive)
HCT-116
  GI50: 4600 nM (inactive)
MDA-N
  GI50: 4450 nM (inactive)
UO-31
  GI50: 5620 nM (inactive)
BT-549
  GI50: 6150 nM (inactive)
SF-268
  GI50: 5060 nM (inactive)
NCI-H226
  GI50: 15000 nM (inactive)
PC-3
  GI50: 4020 nM (inactive)
M14
  GI50: 10800 nM (inactive)
OVCAR-5
  GI50: 15300 nM (inactive)
786-0
  GI50: 2190 nM (inactive)
EKVX
  GI50: 13000 nM (inactive)
MDA-MB-231
  GI50: 10200 nM (inactive)
HT-29
  GI50: 5510 nM (inactive)
SK-OV-3
  GI50: 44400 nM (inactive)
TK-10
  GI50: 17900 nM (inactive)
MCF7
  GI50: 2860 nM (inactive)
T47D
  GI50: 4780 nM (inactive)
SN12C
  GI50: 7080 nM (inactive)
IGROV-1
  GI50: 5810 nM (inactive)
NCI/ADR-RES
  GI50: 7360 nM (inactive)
HCT-15
  GI50: 3580 nM
MOLT-4
  GI50: 2550 nM (inactive)
ACHN
  GI50: 6040 nM (inactive)
Malme-3M
  GI50: 8200 nM (inactive)
U-251
  GI50: 4780 nM (inactive)
NCI-H23
  GI50: 6930 nM (inactive)
HCC 2998
  GI50: 3210 nM (inactive)
SNB-19
  GI50: 8770 nM (inactive)
SK-MEL-2
  GI50: 7760 nM (inactive)
CAKI-1
  GI50: 5370 nM (inactive)
DU-145
  GI50: 25800 nM (inactive)
SK-MEL-28
  GI50: 5520 nM (inactive)
UACC-62
  GI50: 5080 nM (inactive)
A549
  GI50: 17100 nM (inactive)
OVCAR-4
  GI50: 5420 nM (inactive)
CCRF-CEM
  GI50: 2980 nM (inactive)
OVCAR-8
  GI50: 2630 nM (inactive)
Hs-578T
  GI50: 3680 nM (inactive)
K562
  GI50: 2860 nM (inactive)
HOP-92
  GI50: 2230 nM (inactive)
RPMI-8226
  GI50: 2640 nM (inactive)
NCI-H460
  GI50: 5520 nM (inactive)
SK-MEL-5
  GI50: 4030 nM (inactive)
A498
  GI50: 4940 nM (inactive)
UACC-257
  GI50: 11400 nM (inactive)
SF-295
  GI50: 14000 nM (inactive)
HL-60
  GI50: 3590 nM (inactive)
SR
  GI50: 2610 nM (inactive)
HOP-62
  GI50: 19500 nM (inactive)
SW-620
  GI50: 4470 nM (inactive)
SNB-75
  GI50: 3960 nM (inactive)
RXF 393
  GI50: 3560 nM (inactive)
OVCAR-3
  GI50: 3070 nM (inactive)
LOX IMVI
  GI50: 2100 nM (inactive)
KM12
  GI50: 7870 nM (inactive)

## O=C(OC12CC3CC(CC(C3)C1)C2)c1ccc(NCc2cc(O)ccc2O)cc1
MDA-MB-435
  GI50: 1270 nM (inactive)
SF-539
  GI50: 467 nM (active)
COLO 205
  GI50: 285 nM (active)
NCI-H522
  GI50: 77.6 nM (active)
HCT-116
  GI50: 1170 nM (inactive)
MDA-N
  GI50: 1320 nM (inactive)
UO-31
  GI50: 417 nM (active)
BT-549
  GI50: 333 nM (active)
SF-268
  GI50: 1750 nM (inactive)
NCI-H226
  GI50: 1330 nM (inactive)
PC-3
  GI50: 667 nM (active)
M14
  GI50: 1440 nM (inactive)
OVCAR-5
  GI50: 1730 nM (inactive)
786-0
  GI50: 1150 nM (inactive)
EKVX
  GI50: 843 nM (active)
MDA-MB-231
  GI50: 1980 nM (inactive)
HT-29
  GI50: 1480 nM (inactive)
SK-OV-3
  GI50: 2990 nM (inactive)
TK-10
  GI50: 885 nM (active)
MCF7
  GI50: 480 nM (active)
T47D
  GI50: 262 nM (active)
SN12C
  GI50: 1420 nM (inactive)
IGROV-1
  GI50: 109 nM (active)
NCI/ADR-RES
  GI50: 637 nM (active)
HCT-15
  GI50: 435 nM
MOLT-4
  GI50: 94.4 nM (active)
ACHN
  GI50: 968 nM (active)
Malme-3M
  GI50: 625 nM (active)
U-251
  GI50: 701 nM (active)
NCI-H23
  GI50: 1070 nM (active)
HCC 2998
  GI50: 1700 nM (inactive)
SNB-19
  GI50: 2310 nM (inactive)
SK-MEL-2
  GI50: 1350 nM (inactive)
CAKI-1
  GI50: 301 nM (active)
DU-145
  GI50: 3850 nM (inactive)
SK-MEL-28
  GI50: 489 nM (active)
UACC-62
  GI50: 1300 nM (inactive)
A549
  GI50: 3970 nM (inactive)
OVCAR-4
  GI50: 433 nM (active)
CCRF-CEM
  GI50: 38.3 nM (active)
OVCAR-8
  GI50: 1100 nM (active)
Hs-578T
  GI50: 982 nM (active)
K562
  GI50: 622 nM (active)
HOP-92
  GI50: 340 nM (active)
RPMI-8226
  GI50: 96.6 nM (active)
NCI-H460
  GI50: 2530 nM (inactive)
SK-MEL-5
  GI50: 1240 nM (inactive)
A498
  GI50: 1870 nM (inactive)
UACC-257
  GI50: 1240 nM (inactive)
SF-295
  GI50: 2290 nM (inactive)
HL-60
  GI50: 49.1 nM (active)
SR
  GI50: 132 nM (active)
HOP-62
  GI50: 4520 nM (inactive)
SW-620
  GI50: 1670 nM (inactive)
SNB-75
  GI50: 607 nM (active)
RXF 393
  GI50: 288 nM (active)
OVCAR-3
  GI50: 743 nM (active)
LOX IMVI
  GI50: 859 nM (active)
KM12
  GI50: 1160 nM (inactive)

Reference: ChEMBL document CHEMBL1201862, “PubChem BioAssay data set” (2004)
